According to patent publication US7638482B2, “Protein kinase C zeta as a drug target for arthritis and other inflammatory diseases” (Wyeth, priority 2003, dated 2009):
Read-outs that look alike come from different tables or passages of the source. Where a SMILES comes first, the peptide text is derived from it. The star is where a group is joined. Myristoyl = CCCCCCCCCCCCCC(=O)*

Tests used:
[1] = tested on: primary bovine chondrocytes; experiment: Trypan blue staining of chondrocytes and lactate assays on culture media (cytotoxicity); format: cell-based
Experimental: Trypan blue staining of the chondrocytes and lactate assays on the culture media were performed to rule out cytotoxicity as a possible explanation for the results. […] In addition, control peptides were synthesized and tested in the same assay system to address the possibility that nonspecific effects may be causing the observed results.

[2] = tested on: primary bovine chondrocytes; experiment: Proteoglycan degradation in primary bovine chondrocyte pellet culture (release into media / retention in cell pellet, DMMB); format: cell-based
Experimental: Full-thickness bovine articular cartilage slices were dissected under aseptic conditions, rinsed four times in PBS, and subjected to pronase and collagenase digestion (1 mg/ml pronase (Calbiochem, San Diego, Calif.) for 30 minutes and 1 mg/ml Collagenase P (Roche Diagnostics Corporation, Indianapolis, Ind.) overnight at 37° C. in DME without serum) to isolate chondrocytes embedded in the cartilage extracellular matrix. The digest was filtered through a 70 micron Falcon™ cell strainer (BD Biosciences, San Jose, Calif.) and washed twice in DME containing 10% FBS. Typically 2-4×10^8 cells were obtained from a calf metacarpophalangeal joint surface. Cells were plated in monolayer in six-well plates at density of 2×10^6 cells/well. For pellet culture, cells were resuspended in growth media [HL-1 media (Cambrex Corporation, East Rutherford, N.J.), penicillin+streptomycin, glutamine, 50 μg/ml ascorbate, and 10% FBS] at 1×10^6 cells/ml, and 1 ml aliquots of cells were transferred to 15 ml sterile Falcon centrifuge tubes. The cells were centrifuged at 200×g for 5 min at 4° C. and the resulting cell pellets were cultured as described previously (Xu et al. (1996) Endocrinology 137:3557-65). Cell media were collected and stored for collagen and proteoglycan assays, and cells were refed with fresh media (3 ml/well, 1 ml/tube) every 3-4 days. Pellet cultures were maintained for 3 weeks, at which time the pellets were harvested and either digested with 0.5 ml of 300 μg/ml papain at 65° C. for 3-6 hrs for dimethylmethylene blue (DMMB) dye assays or prepared for histology.
Cells were incubated with the inhibitor for 3 hrs prior to the addition of either TNF or IL-1. […] SN50M, which served as a negative control, is the same peptide with amino acid changes to abolish NF-κB-blocking activity. SN50 and SN50M are available from, e.g., Biomol Research Laboratories, Inc. (Plymouth Meeting, Pa.).
To determine whether ζPKC inhibitors can inhibit TNF-mediated proteoglycan degradation, primary bovine chondrocytes were cultured with various concentrations of TNF for 5 days with or without (1) the myristoylated ζPKC peptide pseudosubstrate [herein termed “2089”; synthesized in-house; equivalent to SEQ ID NO:6; available from, e.g., BioSource International, Inc., USA (Camarillo, Calif.)], or (2) the small molecule inhibitor Ro-31-8220 (Sigma-RBI, Natick, Mass.). The inhibitors were added 3 hrs prior to addition of TNF.
To determine whether myristoylated ζPKC peptide pseudosubstrate 2089 can inhibit cytokine-mediated proteoglycan degradation in a dose-dependent manner, primary bovine chondrocytes were cultured with either 10 ng/ml TNF or 1 ng/ml IL-1 for 4 days after addition of various concentrations of 2089. […]

NF-κB = NF-κB luciferase reporter assay in immortalized human chondrocyte cell line C28/I2; format: cell-based; settings: BIS 20 μM; TNFα 1 or 10 ng/ml; C28/I2 cells; inhibitor added 2 hrs before TNF; FIG. 8
Experimental: Activation of NF-κB was measured in an immortalized human chondrocyte cell line (C28/I2; see, e.g., Finger et al. (2003) Arthritis Rheum. 48:3395-403; Goldring (1994) J. Clin. Invest. 94:2307-16) into which a luciferase reporter gene under the control of an NF-κB response element was introduced. The cells were cultured in DMEM/Ham's F12 supplemented with 10% FBS; the cells were split into 96 wells (1×10^5 cells/well) and infected with adenovirus expressing NF-κB luciferase construct (100 MOI) 24 hrs prior to assay. The chondrocytes were incubated with inhibitors in serum-free media 2 hrs prior to the addition of TNF. […] BIS (20 μM), a pan-PKC inhibitor, was added to some cultures, and CC (8 μM), a competitive inhibitor of the phorbol ester binding site in some forms of PKC (but not the a typical PKCs, e.g., ζPKC), was added to other cultures.

ζPKC = biological target: T1, ζPKC (Homo sapiens, UniProt Q05513); settings: literature (Toullec et al. 1991); cited from earlier work
T1 sequence (Q05513 1-592): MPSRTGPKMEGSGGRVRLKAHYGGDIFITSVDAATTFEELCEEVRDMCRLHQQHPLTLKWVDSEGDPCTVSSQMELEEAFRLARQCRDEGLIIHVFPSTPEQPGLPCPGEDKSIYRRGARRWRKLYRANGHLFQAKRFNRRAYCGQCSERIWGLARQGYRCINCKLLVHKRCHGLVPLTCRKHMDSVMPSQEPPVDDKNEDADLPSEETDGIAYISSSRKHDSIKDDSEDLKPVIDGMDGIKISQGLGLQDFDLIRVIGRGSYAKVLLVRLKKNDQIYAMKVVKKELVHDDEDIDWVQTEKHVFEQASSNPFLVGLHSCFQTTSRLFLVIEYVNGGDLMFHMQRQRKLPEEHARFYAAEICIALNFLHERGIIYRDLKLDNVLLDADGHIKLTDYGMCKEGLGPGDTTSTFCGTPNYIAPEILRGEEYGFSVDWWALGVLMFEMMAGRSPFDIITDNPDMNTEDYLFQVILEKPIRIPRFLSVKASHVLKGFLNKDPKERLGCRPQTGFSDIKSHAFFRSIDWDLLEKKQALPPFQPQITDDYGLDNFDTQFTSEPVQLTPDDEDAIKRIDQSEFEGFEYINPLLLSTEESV

CCCCCCCCCCCCCC(=O)N[C@@H](CO)C(=O)N[C@H](C(=O)N[C@@H](Cc1ccc(O)cc1)C(=O)N[C@@H](CCCNC(=N)N)C(=O)N[C@@H](CCCNC(=N)N)C(=O)NCC(=O)N[C@@H](C)C(=O)N[C@@H](CCCNC(=N)N)C(=O)N[C@@H](CCCNC(=N)N)C(=O)N[C@@H](Cc1c[nH]c2ccccc12)C(=O)N[C@@H](CCCNC(=N)N)C(=O)N[C@@H](CCCCN)C(=O)N[C@@H](CC(C)C)C(=O)O)[C@@H](C)CC [compound 2089] (Myristoyl-SIYRRGARRWRKL-OH)
cytotoxicity (trypan blue staining, lactate assays) [1]: do not cause appreciable cytotoxicity

bisindolylmaleimide
TNFα-mediated release of proteoglycan into the media ([2]; BIS at 20-40 μM, TNFα 100 ng/ml, FIG. 7): blocked
TNFα-mediated activation of NF-κB (relative luciferase activity) (NF-κB): blocked
inhibition of PKC isoforms including ζPKC (ζPKC): block the activity of all isoforms of PKC

Cn1cc(C2=C(c3cn(CCCSC(=N)N)c4ccccc34)C(=O)NC2=O)c2ccccc21 [Ro-31-8220]
cytotoxicity (trypan blue staining, lactate assays) ([1]; at the doses used in the proteoglycan degradation experiments): do not cause appreciable cytotoxicity
TNF-mediated proteoglycan degradation ([2]; 5 μM Ro-31-8220, 5 days, FIG. 3): relatively ineffective
TNF-mediated proteoglycan degradation ([2]; 10 μM Ro-31-8220, TNF 10 and 100 ng/ml, 5 days, FIG. 3): significantly inhibited
proteoglycan degradation in the absence of TNF ([2]; no TNF, 5 days, FIG. 3): inhibited proteoglycan degradation
